# Test results as given in US3970643A, “5"-Amino-3',5"-dideoxybutirosin A and derivatives” (Parke, Davis & Company, priority 1975, dated 1976).
# Assays:
# Assay in all cases: MIC, microtitration in TSB, in vitro antibacterial screening
# Format in all cases: cell-based
# Pseudo. aerug. 130 = conditions: Pseudomonas aeruginosa, Pseudo. aerug. 130, gentamicin resistant
# Excerpt: (§1) They show activity when tested by well-recognized in vitro anti-bacterial screening procedures.
# ^c Gentamicin resistant
# Staph auretis S18713 = conditions: Staph auretis S18713, butirosin resistant
# Excerpt: as §1
# Pseudo. aerug. UI-18 = conditions: Pseudomonas aeruginosa
# Excerpt: as §1
# Pseudo. aerug. 733 = conditions: Pseudomonas aeruginosa
# Excerpt: as §1
# Pseudo. aerug. Aquilar = conditions: Pseudomonas aeruginosa, butirosin resistant
# Excerpt: as §1
# Pseudo. aerug. LA-3399 = conditions: Pseudomonas aeruginosa
# Excerpt: as §1
# Pseudo. aerug. No. 28 = conditions: Pseudomonas aeruginosa
# Excerpt: as §1
# Klebs. pneumoniae MGH-1 = conditions: Klebsiella pneumoniae, MGH1
# Excerpt: as §1
# Pseudo. aerug. 58.38 = conditions: Pseudomonas aeruginosa
# Excerpt: as §1
# Entero. cloacae IMM-50 = conditions: Enterobacter cloacae, IMM50
# Excerpt: as §1
# Pseudo. aerug. VAD12-7-7 = conditions: Pseudomonas aeruginosa
# Excerpt: as §1
# Serr. marcescens IMM-5 = conditions: Serratia marcescens, IMM5
# Excerpt: as §1
# Pseudo. aerug. 74C-1 = conditions: Pseudomonas aeruginosa
# Excerpt: as §1
# Esch. coli JR-76.2 = conditions: Escherichia coli, JR76.2
# Excerpt: as §1
# (§2) ^b Butirosin and Gentamicin resistant
# Pseudo. aerug. G-76 = conditions: Pseudomonas aeruginosa, Pseudo. aerug. G-76, butirosin and gentamicin resistant
# Excerpt: as §1, §2
structure (smiles),measurement,setting,value
"NCC[C@H](O)C(=O)N[C@@H]1C[C@H](N)[C@@H](O[C@H]2O[C@H](CN)[C@@H](O)C[C@H]2N)[C@H](O[C@@H]2O[C@H](CN)[C@H](O)[C@H]2O)[C@H]1O [I carbonate, 5""-amino-3',5""-dideoxybutirosin A]",MIC,Pseudo. aerug. 130,6.3 µg/mL
same,MIC,Staph auretis S18713,3.1 µg/mL
same,MIC,Pseudo. aerug. UI-18,3.1 µg/mL
same,MIC,Pseudo. aerug. 733,3.1 µg/mL
same,MIC,Pseudo. aerug. Aquilar,12.5 µg/mL
same,MIC,Pseudo. aerug. LA-3399,12.5 µg/mL
same,MIC,Pseudo. aerug. No. 28,1.6 µg/mL
same,MIC,Klebs. pneumoniae MGH-1,6.3 µg/mL
same,MIC,Pseudo. aerug. 58.38,3.1 µg/mL
same,MIC,Entero. cloacae IMM-50,6.3 µg/mL
same,MIC,Pseudo. aerug. VAD12-7-7,3.1 µg/mL
same,MIC,Serr. marcescens IMM-5,25 µg/mL
same,MIC,Pseudo. aerug. 74C-1,3.1 µg/mL
same,MIC,Esch. coli JR-76.2,25 µg/mL
same,MIC,Pseudo. aerug. G-76,12.5 µg/mL
